According to US6733971B2, “Method for identifying an agent that affects a hedgehog signaling pathway” (priority 1998, dated 2004):

Columns and labels:
[1] = test system: ShhRE reporter gene; assay: Shh-N mediated induction of ShhRE reporter gene activity; assay type: cell-based, mouse; settings: 5 nM (data not shown)
Method: Methods described above in Example 6 were used in addition to the following protocols. P19 cells were transfected with a ShhRE-tkLUC reporter plasmid and three copies of a mutant element called mShhRE-tkLUC and treated with or without 1 nM Shh. Cell lysates were obtained after 30 hours and were later assayed for luciferase reporter activity. A graph (FIG. 5B) representing relative luciferase units per twenty μg (RLU/20 μg) was plotted using results obtained from three separate experiments (mean ±sd).

[2] = test system: GliRE; assay: GliRE-CAT reporter in P19 cells cotransfected with Shh expression plasmid; assay type: cell-based, mouse; settings: 5 nM for 14 hours
Method: P19 cells were cotransfected with pBKCMV-Shh expression plasmid and a GliRECAT reporter plasmid (1 μg)as described earlier. Krishnan, V., et al., Mol. Endo., 11: 1458-1466, 1997. Cells cotransfected with pBKCMY-Shh or pBKCMV plasmid (200 ng) were treated with or without 5 nM OA for 14 hours and reporter gene activity was assayed as described earlier. Gorman, C. M., et al., Mol. and Cell. Biology, 2:1044-1051, 1982. Results are expressed as mean±sd from three separate experiments.

[3] = test system: SV40 enhancer; assay: Constitutively active SV40 enhancer luciferase reporter (specificity control); assay type: cell-based; settings: 5 nM (data not shown)
[4] = test system: PP2C; settings: cited from earlier work
[5] = test system: ShhRE; assay: EMSA of Shh-induced protein binding to radiolabeled ShhRE, P19 nuclear extracts; assay type: cell-based, mouse; settings: 5 nM, 1.0 nM Shh-N, 24 hours
Method: Methods described in Example 6 were used in addition to the following protocols. P19 cells were treated with or without Shh-N for 24 hours and nuclear extracts were obtained and used in an electrophoretic mobility shift assay (EMSA) with radiolabeled ShhRE. The following oligos were used as competitors or probes in these assays; WT ShhRE—GTTCTACATAATGCGCCG—SEQ ID NO:1; mShhRE—GTTCTACgTgATGCGCCG—SEQ ID NO:3; GliRE—[…]—. SEQ ID NO:4, Different amounts of unlabeled Gli response element (GliRE) (FIG. 5C, lane 3, 100X; lane 4, 50X; lane 5, 25X; and lane 6, 10X) or ShhRE (lane 7; 100X, lane 8; 50X and lane 9; 10X) was used as a competitor at the indicated molar excess.
In EMSA, radiolabeled probe was incubated with the nuclear extracts (10 μg) along with 4 μg poly dG-dC in a binding reaction containing 10 mM Tris pH 7.5, 50 mM NaCl, 1 mM EDTA, 1 mM DTT, 0.1 mg/ml BSA, and 5% glycerol. Later the mixture was loaded onto a 5% polyacrylamide gel and the retarded complexes were separated-in 1× TBE buffer and analyzed using autoradiography.
(§1) P-19 cells were treated with phosphatase inhibitors to study the endogenous levels of COUP-TFII mRNA. […] Total RVA was isolated from these cells and 20 μg of RNA was used in a RNase protection assay as described above in Example 6. A region of the murine Cyclophilin A cDNA was used to generate riboprobe and was used as an internal control. P19 cells were co-treated with (FIG. 7C, lane 2, 4, 6, and 7) or without (FIG. 7C, lane 1, 3, and 5) 1.0 nM Shh-N and 5 nM OA (lane 3 and 4), 0.5 nM CyA (FIG. 7C, lane 5 & 6) or 5 nm NoA (FIG. 7C, lane 9). Cells were harvested after 24 hours of treatment and the nuclear extract was obtained for the binding reactions. Extracts were subjected to an EMSA as described earlier.

[6] = test system: Isl1 mRNA; assay: Isl1 mRNA in P19 cells, RT-PCR; assay type: cell-based, mouse; settings: 5 nM for 12 hours, 1 nM Shh-N for 24 hours
Method: Methods described in Example 6 were used in addition to the following protocols. P19 cells were treated with (FIG. 8A, lanes 2 and 4) or without (FIG. 8A, lanes 1 and 3) 1 nM Shh-N for 24 hours and 5 nM OA (FIG. 8A, lanes 3 and 4) for 12 hours and total RNA was obtained. An internal control containing a 763 bp insert into the SphI site of the Islet-1 cDNA was transcribed in vitro to prepare sense-oriented RNA. 1 ng of this RNA along with 100 ng of total RNA from appropriately treated P19 cells was reverse transcribed using Superscript II™ and one-tenth of each reaction was PCR amplified. Specific primers for Islet-1; Forward primer: 5′TCAAAC CTA CTT TGG GGT CTT A 3′SEQ ID NO:5. Reverse primer: 5′ATCGCCGGGGATGAGCTGGCGGCT 3′SEQ ID NO:6, and for COUP-TFII; Forward primer: 5′GATATGGCAATGGTAGTCAGCACGTGG 3′. SEQ ID NO:7, Reverse primer: 5′AGCTTCTCCACTTGCTCTTGG 3′SEQ ID NO:8, were used to PCR amplify (94° C. for 1 minute, 54° C. for 1 minute, and 72° C. for 1 minute. Twenty-two cycles were used for amplifying Islet-1 and the resulting products were separated on a 1% agarose gel in TAE buffer and visualized by ethidium bromide staining. A 1 kb DNA ladder (Stratagene) was used to estimate the size of the products. A 427 bp Isl1 fragment and a 838 bp COUP-TFII fragment was used to estimate changes in mRNA levels.

[7] = test system: COUP-TFII mRNA; assay: COUP-TFII mRNA in P19 cells, RNase protection assay; assay type: cell-based, mouse; settings: 5 nM for 12 hours, with 1.0 nM Shh-N
Method: The P19 mouse embryo carcinoma cell line which was earlier shown to contain increased levels of COUP-TF transcripts after retinoid treatment was utilized. Jonk, L. J. C., et al., Mechan. of Dev. (1994) 47:81-97). Conditioned media obtained from COS-1 cells transfected with mouse Shh-N cDNA expression plasmid or purified E. coli expressed recombinant Shh-N was used.
Briefly, a total of 20 μg RNA was hybridized to a 450 (FIG. 5A) or 120 (FIG. 7B) nucleotide riboprobe that corresponds to the 5′ untranslated region (UTR) of the COUP-TFII gene along with a 670 (FIG. 5A) or 102 (FIG. 7B) nucleotide riboprobe of the murine Cyclophilin A coding region. The RPA II™ kit from Ambion was used to perform the RNase protection assay. The products were subjected to RNase digestion and analyzed on a 6% urea polyacrylamide gel.
as §1

[8] = test system: PP2B; settings: cited from earlier work

## C=C1[C@@H](O)[C@@H]2O[C@]3(CC[C@H](/C=C/[C@@H](C)[C@@H]4CC(C)=C[C@@]5(O[C@H](C[C@@](C)(O)C(=O)O)CC[C@H]5O)O4)O3)CC[C@H]2O[C@@H]1[C@@H](O)C[C@H](C)[C@H]1O[C@@]2(CCCCO2)CC[C@H]1C [OA, okadaic acid]
[1]
  Shh-N mediated induction of ShhRE reporter gene activity: completely blocked
[2]
  Shh-enhanced GliRE-CAT reporter activity: sensitive
[3]
  SV40 enhancer driven luciferase reporter gene activity: did not effect
[4]
  effect on PP2C: no effect
[5]
  Shh-induced binding to radiolabeled ShhRE: abolished
[6]
  Shh-N induction of Is11 mRNA: completely blocked
[7]
  Shh-induced COUP-TFII mRNA: complete inhibition
[8]
  effect on PP2B: no effect
